According to publication PMC11081458 (Nature structural & molecular biology, 2024):

How the values were obtained:
[1] = biological target: T1, BIg–RbCBM74–BIg (Ruminococcus bromii, UniProt A0ABF7PL48); experiment: Native mass spectrometry titration, BIg–RbCBM74–BIg; settings: native MS, 5 μM protein, 200 mM ammonium acetate
[2] = biological target: T1, BIg–RbCBM74–BIg; experiment: Isothermal titration calorimetry with BIg–RbCBM74–BIg
[3] = biological target: Sas6T (Ruminococcus bromii, UniProt A0ABF7PL48); experiment: Isothermal titration calorimetry with Sas6T; settings: for binding by ITC (in words) / n (binding stoichiometry): ITC; for n (binding stoichiometry): fitted n
Sas6T, sequence (A0ABF7PL48 31-665 limits assumed): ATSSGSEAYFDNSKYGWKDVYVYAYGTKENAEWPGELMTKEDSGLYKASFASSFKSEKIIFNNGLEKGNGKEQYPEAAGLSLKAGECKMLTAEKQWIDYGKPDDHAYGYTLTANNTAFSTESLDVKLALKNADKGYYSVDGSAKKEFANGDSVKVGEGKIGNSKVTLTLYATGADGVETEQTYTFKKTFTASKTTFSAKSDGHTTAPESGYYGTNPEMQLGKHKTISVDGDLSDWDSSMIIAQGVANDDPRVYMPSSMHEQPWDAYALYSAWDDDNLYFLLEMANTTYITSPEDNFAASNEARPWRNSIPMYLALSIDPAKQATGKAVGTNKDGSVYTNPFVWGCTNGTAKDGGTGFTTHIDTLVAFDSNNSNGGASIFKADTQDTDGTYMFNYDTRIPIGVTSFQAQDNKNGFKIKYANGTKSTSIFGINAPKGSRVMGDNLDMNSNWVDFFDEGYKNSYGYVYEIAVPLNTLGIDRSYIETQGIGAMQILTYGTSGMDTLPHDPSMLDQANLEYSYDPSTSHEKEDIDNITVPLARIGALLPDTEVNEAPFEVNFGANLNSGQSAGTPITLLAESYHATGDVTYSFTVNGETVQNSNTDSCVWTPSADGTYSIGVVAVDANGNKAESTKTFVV

[4] = biological target: RbCBM26 (Ruminococcus bromii, UniProt A0ABF7PL48); experiment: Isothermal titration calorimetry with RbCBM26; settings: for binding by ITC (in words) / n (binding stoichiometry): ITC; for n (binding stoichiometry): fitted n
RbCBM26, sequence (A0ABF7PL48 31-129 limits assumed): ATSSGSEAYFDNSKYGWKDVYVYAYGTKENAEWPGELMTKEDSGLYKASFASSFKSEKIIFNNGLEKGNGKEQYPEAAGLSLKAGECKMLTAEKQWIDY

[5] = biological target: previously studied CBM26 modules; settings: read-out: dissociation constant (Kd) range; cited from earlier work
[6] = system: W373A site-directed mutant within the BIg–RbCBM74–BIg construct; experiment: Isothermal titration calorimetry with W373A mutant
[7] = system: H289A site-directed mutant within the BIg–RbCBM74–BIg construct; experiment: Isothermal titration calorimetry with H289A mutant; settings: ITC
[8] = system: F326A site-directed mutant within the BIg–RbCBM74–BIg construct; experiment: Isothermal titration calorimetry with F326A mutant; settings: ITC

T1 sequence (A0ABF7PL48 134-665 limits assumed): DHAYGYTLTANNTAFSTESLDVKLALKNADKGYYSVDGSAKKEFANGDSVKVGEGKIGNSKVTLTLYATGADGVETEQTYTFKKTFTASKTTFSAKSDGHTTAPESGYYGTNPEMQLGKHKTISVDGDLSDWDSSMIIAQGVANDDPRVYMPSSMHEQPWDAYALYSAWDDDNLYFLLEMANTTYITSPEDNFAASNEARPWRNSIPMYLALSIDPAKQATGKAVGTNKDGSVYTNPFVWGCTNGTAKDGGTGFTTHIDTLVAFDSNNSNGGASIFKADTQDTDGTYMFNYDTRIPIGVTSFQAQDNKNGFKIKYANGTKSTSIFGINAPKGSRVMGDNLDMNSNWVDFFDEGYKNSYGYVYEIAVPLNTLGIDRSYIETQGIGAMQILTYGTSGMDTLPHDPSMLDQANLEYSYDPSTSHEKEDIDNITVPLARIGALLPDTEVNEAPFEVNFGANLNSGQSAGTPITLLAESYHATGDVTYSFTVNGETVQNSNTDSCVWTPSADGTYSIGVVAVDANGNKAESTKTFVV

## OC[C@H]1O[C@H](O[C@H]2[C@H](O)[C@@H](O)[C@@H](O[C@H]3[C@H](O)[C@@H](O)[C@@H](O[C@H]4[C@H](O)[C@@H](O)[C@@H](O[C@H]5[C@H](O)[C@@H](O)[C@@H](O[C@H]6[C@H](O)[C@@H](O)[C@@H](O[C@H]7[C@H](O)[C@@H](O)[C@@H](O[C@H]8[C@H](O)[C@@H](O)[C@@H](O[C@H]9[C@H](O)[C@@H](O)[C@@H](O[C@H]%10[C@H](O)[C@@H](O)[C@@H](O[C@H]%11[C@H](O)[C@@H](O)[C@@H](O[C@H]%12[C@H](O)[C@@H](O)[C@@H](O[C@H]%13[C@H](O)[C@@H](O)[C@@H](O[C@H]%14[C@H](O)[C@@H](O)C(O)O[C@@H]%14CO)O[C@@H]%13CO)O[C@@H]%12CO)O[C@@H]%11CO)O[C@@H]%10CO)O[C@@H]9CO)O[C@@H]8CO)O[C@@H]7CO)O[C@@H]6CO)O[C@@H]5CO)O[C@@H]4CO)O[C@@H]3CO)O[C@@H]2CO)[C@H](O)[C@@H](O)[C@@H]1O (stereo partly shown) [G14, maltotetradecaose]
[1]
  Kd: 1.29 ± 0.1 µM

## OC[C@H]1O[C@H](OC[C@H]2O[C@H](O[C@H]3[C@H](O)[C@@H](O)[C@@H](O[C@H]4[C@H](O)[C@@H](O)[C@@H](OC[C@H]5O[C@H](O[C@H]6[C@H](O)[C@@H](O)[C@@H](O[C@H]7[C@H](O)[C@@H](O)C(O)O[C@@H]7CO)O[C@@H]6CO)[C@H](O)[C@@H](O)[C@@H]5O)O[C@@H]4CO)O[C@@H]3CO)[C@H](O)[C@@H](O)[C@@H]2O)[C@H](O)[C@@H](O)[C@@H]1O (stereo partly drawn) [glucosyl-α1,6-maltotriosyl-α 1,6-maltotriose]
[2]
  binding by ITC (in words): None of the constructs bound
[3]
  binding by ITC (in words): None of the constructs bound
[4]
  binding by ITC (in words): None of the constructs bound

## OC[C@H]1O[C@@H]2O[C@H]3[C@H](O)[C@@H](O)[C@@H](O[C@H]4[C@H](O)[C@@H](O)[C@@H](O[C@H]5[C@H](O)[C@@H](O)[C@@H](O[C@H]6[C@H](O)[C@@H](O)[C@@H](O[C@H]7[C@H](O)[C@@H](O)[C@@H](O[C@H]8[C@H](O)[C@@H](O)[C@@H](O[C@H]1[C@H](O)[C@H]2O)O[C@@H]8CO)O[C@@H]7CO)O[C@@H]6CO)O[C@@H]5CO)O[C@@H]4CO)O[C@@H]3CO [β-cyclodextrin]
[5]
  Kd: 350 to 600 µM

## OC[C@H]1O[C@H](O[C@H]2[C@H](O)[C@@H](O)[C@@H](O[C@H]3[C@H](O)[C@@H](O)[C@@H](O[C@H]4[C@H](O)[C@@H](O)[C@@H](O[C@H]5[C@H](O)[C@@H](O)[C@@H](O[C@H]6[C@H](O)[C@@H](O)[C@@H](O[C@H]7[C@H](O)[C@@H](O)[C@@H](O[C@H]8[C@H](O)[C@@H](O)[C@@H](O[C@H]9[C@H](O)[C@@H](O)[C@@H](O[C@H]%10[C@H](O)[C@@H](O)C(O)O[C@@H]%10CO)O[C@@H]9CO)O[C@@H]8CO)O[C@@H]7CO)O[C@@H]6CO)O[C@@H]5CO)O[C@@H]4CO)O[C@@H]3CO)O[C@@H]2CO)[C@H](O)[C@@H](O)[C@@H]1O (stereo partly shown) [G10, maltodecaose]
[2]; ITC, fitted n
  n (binding stoichiometry): 0.9 ± 0.20
[6]
  binding by ITC (in words): lost binding
[3]
  n (binding stoichiometry): 0.8 ± 0.07
[4]
  n (binding stoichiometry): 0.7 ± 0.21
[7]
  decrease in affinity relative to BIg–RbCBM74–BIg: 10–20 fold
[8]
  decrease in affinity relative to BIg–RbCBM74–BIg: 10–20 fold
[1]
  Kd: 2.16 ± 0.53 µM

## OC[C@H]1O[C@H](O[C@H]2[C@H](O)[C@@H](O)[C@@H](O[C@H]3[C@H](O)[C@@H](O)[C@@H](O[C@H]4[C@H](O)[C@@H](O)[C@@H](O[C@H]5[C@H](O)[C@@H](O)[C@@H](O[C@H]6[C@H](O)[C@@H](O)[C@@H](O[C@H]7[C@H](O)[C@@H](O)[C@@H](O[C@H]8[C@H](O)[C@@H](O)C(O)O[C@@H]8CO)O[C@@H]7CO)O[C@@H]6CO)O[C@@H]5CO)O[C@@H]4CO)O[C@@H]3CO)O[C@@H]2CO)[C@H](O)[C@@H](O)[C@@H]1O (stereo partly shown) [G8, maltooctaose]
[3]
  Kd: 496 ± 260 µM
  binding by ITC (in words): in the hundreds of μM
[4]
  Kd: 285 ± 84 µM

## maltoheptaose [G7]
[2]
  binding by ITC (in words): no detectable affinity
[3]
  binding by ITC (in words): in the hundreds of μM
[4]
  binding by ITC (in words): binds

## OC[C@H]1O[C@@H]2O[C@H]3[C@H](O)[C@@H](O)[C@@H](O[C@H]4[C@H](O)[C@@H](O)[C@@H](O[C@H]5[C@H](O)[C@@H](O)[C@@H](O[C@H]6[C@H](O)[C@@H](O)[C@@H](O[C@H]7[C@H](O)[C@@H](O)[C@@H](O[C@H]1[C@H](O)[C@H]2O)O[C@@H]7CO)O[C@@H]6CO)O[C@@H]5CO)O[C@@H]4CO)O[C@@H]3CO [ACX, α-cyclodextrin]
[2]
  binding by ITC (in words): no detectable affinity
[3]
  n (binding stoichiometry): 1.0 ± 0.4
[4]
  binding by ITC (in words): binds
  n (binding stoichiometry): 0.8 ± 0.13
